According to PubChem BioAssay AID330 (DTP/NCI, 2004):
Where “and” joins values, the source holds several entries; their conditions need not be identical. Identical values can stand only once. Inconclusive results and toxic doses are left out.

System: P388 leukemia ip, CD2F1 mice, survival T/C
Assay: NCI In Vivo Anticancer Drug Screen. Data for tumor model P388 Leukemia (intraperitoneal) in CD2F1 (CDF1) mice
Details: endpoint: median survival time, higher = longer survival
How it was run: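 Mice carrying the transplanted tumor received test compound or vehicle. Survival was recorded in each group, and the value is the treated-group measurement divided by that of the vehicle-treated control group.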

[1] = dose: 12.5 mg/kg/injection, schedule: Q01DX009 (ip), vehicle: Klucel (hydroxypropylcellulose) (HPC)
[2] = dose: 25.0 mg/kg/injection, schedule: Q01DX009 (ip), vehicle: Klucel (hydroxypropylcellulose) (HPC)
[3] = dose: 50.0 mg/kg/injection, schedule: Q01DX009 (ip), vehicle: Klucel (hydroxypropylcellulose) (HPC)
[4] = dose: 200.0 mg/kg/injection, schedule: Q01DX009 (ip), vehicle: Klucel (hydroxypropylcellulose) (HPC)
[5] = dose: 100.0 mg/kg/injection, schedule: Q01DX009 (ip), vehicle: Klucel (hydroxypropylcellulose) (HPC)
[6] = dose: 50.0 mg/kg/injection, schedule: Q01DX001 (ip), vehicle: saline with Tween-80
[7] = dose: 100.0 mg/kg/injection, schedule: Q01DX001 (ip), vehicle: saline with Tween-80
[8] = dose: 200.0 mg/kg/injection, schedule: Q01DX001 (ip), vehicle: saline with Tween-80
[9] = dose: 50.0 mg/kg/injection, schedule: Q01DX005 (ip), vehicle: saline with Tween-80
[10] = dose: 100.0 mg/kg/injection, schedule: Q01DX005 (ip), vehicle: saline with Tween-80
[11] = dose: 200.0 mg/kg/injection, schedule: Q01DX005 (ip), vehicle: saline with Tween-80
[12] = dose: 60.0 mg/kg/injection, schedule: Q01DX005 (ip), vehicle: saline with Tween-80
[13] = dose: 120.0 mg/kg/injection, schedule: Q01DX005 (ip), vehicle: saline with Tween-80
[14] = dose: 6.25 mg/kg/injection, schedule: Q01DX009 (ip), vehicle: Klucel (hydroxypropylcellulose) (HPC)

For `CNC1CCc2cc(OC)ccc21` (centres undefined), the T/C (dose: 50.0 mg/kg/injection, schedule: Q01DX001 (ip), vehicle: Klucel (hydroxypropylcellulose) (HPC)) was 107 % of control and the T/C (dose: 100.0 mg/kg/injection, schedule: Q01DX001 (ip), vehicle: Klucel (hydroxypropylcellulose) (HPC)) was 102 % of control.
For `CCc1ccccc1NC(=O)C(=O)CC(=O)c1ccc(Cl)s1`, the T/C (dose: 100.0 mg/kg/injection, schedule: Q04DX002 (ip), vehicle: saline with Tween-80) was 100 % of control, the T/C (dose: 200.0 mg/kg/injection, schedule: Q04DX002 (ip), vehicle: saline with Tween-80) was 102 % of control and the T/C (dose: 400.0 mg/kg/injection, schedule: Q04DX002 (ip), vehicle: saline with Tween-80) was 103 % of control.
`Cc1cc(C)c(S(=O)(=O)Sc2nnnn2C)c(C)c1` was tested, and the T/C [1] was 102 % of control, the T/C [2] was 104 % of control and the T/C [3] was 95 % of control and 98 % of control. For the same compound, the T/C [4] was 98 % of control.
With `COc1ccc(CC2C(=O)NC(C)C(=O)N(C)C3Cc4ccc(cc4)Oc4cc(ccc4OC)CC(C(=O)NC(C)C(=O)NC(C)C(=O)N2C)N(C)C3=O)cc1` (centres undefined) the T/C (dose: 0.5 mg/kg/injection, schedule: Q01DX009 (ip), vehicle: none) was 161 % of control, the T/C (dose: 1.0 mg/kg/injection, schedule: Q01DX009 (ip), vehicle: none) was 152 % of control and the T/C (dose: 2.0 mg/kg/injection, schedule: Q01DX009 (ip), vehicle: none) was 190 % of control.
For `CNC1c2ccccc2CCC1O` (centres undefined), the T/C (dose: 100.0 mg/kg/injection, schedule: Q04DX002 (ip), vehicle: Klucel (hydroxypropylcellulose) (HPC)) was 100 % of control and the T/C (dose: 200.0 mg/kg/injection, schedule: Q04DX002 (ip), vehicle: Klucel (hydroxypropylcellulose) (HPC)) was 96 % of control.
In the case of `Cc1cc(-c2ccc(N3C(=O)CC4(CCCCC4)C3=O)c(C)c2)ccc1N1C(=O)CC2(CCCCC2)C1=O`, the T/C (dose: 100.0 mg/kg/injection, schedule: Q04DX003 (ip), vehicle: Klucel (hydroxypropylcellulose) (HPC)) was 90 % of control and the T/C (dose: 200.0 mg/kg/injection, schedule: Q04DX003 (ip), vehicle: Klucel (hydroxypropylcellulose) (HPC)) was 90 % of control.
`Cc1cc(=O)n2c(nc3cc(Cl)ccc32)s1` was tested, and the T/C [3] was 103 % of control, the T/C [5] was 95 % of control and the T/C [4] was 89 % of control.
For `CCNc1nn2ccccc2c1/C=C(/C#N)C(=O)OCC`, the T/C (dose: 25.0 mg/kg/injection, schedule: Q01DX001 (ip), vehicle: saline with Tween-80) was 94 % of control, the T/C [6] was 91 % of control and the T/C [7] was 91 % of control. The T/C [8] was 91 % of control.
For `CCOC(=O)Nc1cc(NC/C(=N/O)c2ccc(C(F)(F)F)cc2)c([N+](=O)[O-])c(N)n1`, the T/C [6] was 94 % of control and the T/C [7] was 96 % of control.
For `NCC(=O)c1ccc2ccccc2c1`, the T/C (dose: 60.0 mg/kg/injection, schedule: Q01DX005 (ip), vehicle: Klucel (hydroxypropylcellulose) (HPC)) was 105 % of control and the T/C (dose: 120.0 mg/kg/injection, schedule: Q01DX005 (ip), vehicle: Klucel (hydroxypropylcellulose) (HPC)) was 106 % of control.
With `O=C1NC2CSC(CCCCC(=O)ON3C(=O)CCC3=O)C2N1` (centres undefined) the T/C [9] was 104 % of control, the T/C [10] was 116 % of control and the T/C [11] was 116 % of control.
In the case of `Cc1c2c(C#N)nccc2c(C)c2c1c1ccccc1n2Cc1ccccc1`, the T/C (dose: 6.25 mg/kg/injection, schedule: Q04DX003 (ip), vehicle: distilled water + Tween-80) was 96 % of control, the T/C (dose: 12.5 mg/kg/injection, schedule: Q04DX003 (ip), vehicle: distilled water + Tween-80) was 90 % of control and the T/C (dose: 25.0 mg/kg/injection, schedule: Q04DX003 (ip), vehicle: distilled water + Tween-80) was 87 % of control. For the same compound, the T/C (dose: 50.0 mg/kg/injection, schedule: Q04DX003 (ip), vehicle: distilled water + Tween-80) was 87 % of control, the T/C (dose: 100.0 mg/kg/injection, schedule: Q04DX003 (ip), vehicle: distilled water + Tween-80) was 90 % of control and the T/C (dose: 200.0 mg/kg/injection, schedule: Q04DX003 (ip), vehicle: distilled water + Tween-80) was 91 % of control.
`Cn1c(Cl)c(C=O)c(=O)n(C)c1=O` was tested, and the T/C (dose: 100.0 mg/kg/injection, schedule: Q04DX003 (ip), vehicle: saline with Tween-80) was 104 % of control and the T/C (dose: 200.0 mg/kg/injection, schedule: Q04DX003 (ip), vehicle: saline with Tween-80) was 96 % of control.
In the case of `CC(C)N1C(=O)N(Cl)C2C1N(Cl)C(=O)N2Cl` (centres undefined), the T/C (dose: 25.0 mg/kg/injection, schedule: Q01DX005 (ip), vehicle: saline with Tween-80) was 99 % of control, the T/C [9] was 108 % of control and 122 % of control and the T/C [10] was 122 % of control. The T/C [11] was 113 % of control and 117 % of control.
In the case of `CC12C=CC(O1)C1C(=O)OC(=O)C12` (centres undefined), the T/C [12] was 101 % of control and the T/C [13] was 90 % of control.
With `Cn1cc(F)c(=O)n(C)c1=O` the T/C (dose: 30.0 mg/kg/injection, schedule: Q04DX002 (ip), vehicle: saline) was 96 % of control, the T/C (dose: 60.0 mg/kg/injection, schedule: Q04DX002 (ip), vehicle: saline) was 100 % of control and the T/C (dose: 120.0 mg/kg/injection, schedule: Q04DX002 (ip), vehicle: saline) was 98 % of control. For the same compound, the T/C (dose: 125.0 mg/kg/injection, schedule: Q04DX002 (ip), vehicle: saline) was 96 % of control, the T/C (dose: 240.0 mg/kg/injection, schedule: Q04DX002 (ip), vehicle: saline) was 99 % of control and the T/C (dose: 250.0 mg/kg/injection, schedule: Q04DX002 (ip), vehicle: saline) was 105 % of control.
In the case of `Cc1cc(C)c(SSc2nnnn2-c2ccccc2)c(C)c1`, the T/C [3] was 108 % of control, the T/C [5] was 103 % of control and the T/C [4] was 94 % of control.
With `Cc1cccc(Cl)c1NC(=O)CN(C)CCN1CCCC1` the T/C (dose: 60.0 mg/kg/injection, schedule: Q01DX005 (ip), vehicle: saline) was 103 % of control and the T/C (dose: 120.0 mg/kg/injection, schedule: Q01DX005 (ip), vehicle: saline) was 110 % of control.
In the case of `Clc1cccn2cnnc12`, the T/C (dose: 50.0 mg/kg/injection, schedule: Q01DX009 (ip), vehicle: saline with Tween-80) was 98 % of control, the T/C (dose: 100.0 mg/kg/injection, schedule: Q01DX009 (ip), vehicle: saline with Tween-80) was 103 % of control and the T/C (dose: 200.0 mg/kg/injection, schedule: Q01DX009 (ip), vehicle: saline with Tween-80) was 100 % of control.
For `CC(=O)OCC1OC(n2cc(F)c(=O)[nH]c2=O)C(OC(C)=O)C1OC(C)=O` (centres undefined), the T/C (dose: 1.56 mg/kg/injection, schedule: Q01DX009 (ip), vehicle: Klucel (hydroxypropylcellulose) (HPC)) was 110 % of control, the T/C [14] was 151 % of control and the T/C [1] was 108 % of control. The T/C [2] was 89 % of control, the T/C [3] was 89 % of control and the T/C [5] was 88 % of control.
With `CCOC(=O)Nc1c(C)noc1NC(C)=O` the T/C [7] was 100 % of control, the T/C [8] was 100 % of control and the T/C (dose: 400.0 mg/kg/injection, schedule: Q01DX001 (ip), vehicle: saline with Tween-80) was 95 % of control.
`NS(=O)(=O)c1cc([N+](=O)[O-])ccc1C(=O)OC1CCCCC1` was tested, and the T/C (dose: 50.0 mg/kg/injection, schedule: Q01DX005 (ip), vehicle: Klucel (hydroxypropylcellulose) (HPC)) was 104 % of control, the T/C (dose: 100.0 mg/kg/injection, schedule: Q01DX005 (ip), vehicle: Klucel (hydroxypropylcellulose) (HPC)) was 113 % of control and the T/C (dose: 200.0 mg/kg/injection, schedule: Q01DX005 (ip), vehicle: Klucel (hydroxypropylcellulose) (HPC)) was 92 % of control.
With `COc1ccc2c(c1)CCC1(C)CC(=O)C=C21` (centres undefined) the T/C [14] was 115 % of control, the T/C [1] was 114 % of control and the T/C [2] was 108 % of control.
For `O=C1NC(=S)NNC12CCCCC2`, the T/C [2] was 101 % of control, the T/C [3] was 101 % of control and 108 % of control and the T/C [5] was 112 % of control and 97 % of control. For the same compound, the T/C [4] was 105 % of control (2×) and 113 % of control.
For `CC1C(=O)C(C)C(c2ccc(Cl)cc2)OC1c1ccc(Cl)cc1` (centres undefined), the T/C (dose: 50.0 mg/kg/injection, schedule: Q01DX009 (ip), vehicle: saline) was 112 % of control, the T/C (dose: 100.0 mg/kg/injection, schedule: Q01DX009 (ip), vehicle: saline) was 103 % of control and the T/C (dose: 200.0 mg/kg/injection, schedule: Q01DX009 (ip), vehicle: saline) was 114 % of control.
`O=C1NN=C(C(O)c2ccccc2)C1(O)c1ccccc1` (centres undefined) was tested, and the T/C [12] was 91 % of control, the T/C (dose: 100.0 mg/kg/injection, schedule: Q04DX002 (ip), vehicle: distilled water + alcohol) was 103 % of control and the T/C [13] was 98 % of control. The T/C (dose: 200.0 mg/kg/injection, schedule: Q04DX002 (ip), vehicle: distilled water + alcohol) was 98 % of control, the T/C (dose: 240.0 mg/kg/injection, schedule: Q01DX005 (ip), vehicle: saline with Tween-80) was 93 % of control and the T/C (dose: 400.0 mg/kg/injection, schedule: Q04DX002 (ip), vehicle: distilled water + alcohol) was 94 % of control.
With `O=C(CC(=O)N1CCN=C1Nc1c(Cl)cccc1Cl)c1ccc(Cl)cc1` the T/C [14] was 109 % of control, the T/C [1] was 105 % of control and the T/C [2] was 96 % of control.
